Where two headings read alike, the source gives them in different places.
Tests used:
[1] = target: nAChRs comprised of α4 and β2 subunits (Rattus norvegicus, UniProt P09483+P12390); experiment: In vitro inhibition of 3H-cytisine binding
Description: In Vitro Inhibition of ^3H-cytisine Binding
The predominant subtype with high affinity for nicotine is comprised of α4 and β2 subunits. nAChRs of the latter type can selectively be labelled by the nicotine agonist ^3H-cytisine.
Tissue Preparation: Preparations are performed at 0-4° C. unless otherwise indicated. […] The homogenate is centrifuged at 27,000×g for 10 min. The supernatant is discarded and the pellet is resuspended in fresh buffer and centrifuged a second time. The final pellet is resuspended in fresh buffer (35 ml per g of original tissue) and used for binding assays.
Assay: Aliquots of 500 μl homogenate are added to 25 μl of test solution and 25 μl of ^3H-cytisine (1 nM, final concentration), mixed and incubated for 90 min at 2° C. Non-specific binding is determined using (−)-nicotine (100 μM, final concentration). After incubation the samples are added 5 ml of ice-cold buffer and poured directly onto Whatman GF/C glass fibre filters under suction and immediately washed with 2×5 ml ice-cold buffer. The amount of radioactivity on the filters is determined by conventional liquid scintillation counting. Specific binding is total binding minus non-specific binding.

[2] = target: T1, α4β2 subtype of nicotinic receptors (neuronal nicotinic receptors) (Rattus norvegicus, UniProt P09483+P12390); experiment: In vitro inhibition of 3H-epibatidin binding
T1 construct: The forebrain (÷cerebellum) from a male Wistar rat (150-250 g) is homogenized; from tissue; host or cells: rat forebrain (without cerebellum) homogenate (male Wistar)
Description: In Vitro Inhibition of ^3H-epibatidin Binding
The high affinity binding site for ^3H-epibatidin is most certainly binding to the α4β2 subtype of nicotinic receptors. The identity of the low affinity site is still unknown; does it represent a second nicotinic receptor or a second site in the same receptor.
Tissue preparation: Preparations are performed at 0-4° C. unless otherwise indicated. The forebrain (÷cerebellum) from a male Wistar rat (150-250 g) is homogenized for 10-20 sec in 20 ml Tris, HCl (50 mM, pH 7.4) using an Ultra-Turrax homogenizer. The tissue suspension is centrifuged at 27,000×g for 10 min. The supernatant is discarded and the pellet is washed three times by centrifugation at 27,000×g for 10 min in 20 ml fresh buffer, and the final pellet is resuspended in fresh buffer (400 ml per g of original tissue) and used for binding assays.
Assay: Aliquots of 2.0 ml homogenate are added to 0.100 ml of test solution and 0.100 ml of ^3H-epibatidin (0.3 nM, final concentration), mixed and incubated for 60 min at room temperature. Non-specific binding is determined using (−)-nicotine (30 μM, final concentration). After incubation the samples are poured directly onto Whatman GF/C glass fibre filters (presoaked in 0.1% PEI for at least 20 min) under suction and immediately washed with 2×5 ml ice-cold buffer. The amount of radioactivity on the filters is determined by conventional liquid scintillation counting. Specific binding is total binding minus non-specific binding.

[3] = target: nAChR formed by the α7 subunit isoform (Rattus norvegicus, UniProt Q05941); experiment: biochemical; type: binding
[4] = approximate potency, times that of morphine; cited from earlier work
[5] = read-out: 3H-α-bungarotoxin IC50

Sequence of nAChR formed by the α7 subunit isoform (Q05941 23-502): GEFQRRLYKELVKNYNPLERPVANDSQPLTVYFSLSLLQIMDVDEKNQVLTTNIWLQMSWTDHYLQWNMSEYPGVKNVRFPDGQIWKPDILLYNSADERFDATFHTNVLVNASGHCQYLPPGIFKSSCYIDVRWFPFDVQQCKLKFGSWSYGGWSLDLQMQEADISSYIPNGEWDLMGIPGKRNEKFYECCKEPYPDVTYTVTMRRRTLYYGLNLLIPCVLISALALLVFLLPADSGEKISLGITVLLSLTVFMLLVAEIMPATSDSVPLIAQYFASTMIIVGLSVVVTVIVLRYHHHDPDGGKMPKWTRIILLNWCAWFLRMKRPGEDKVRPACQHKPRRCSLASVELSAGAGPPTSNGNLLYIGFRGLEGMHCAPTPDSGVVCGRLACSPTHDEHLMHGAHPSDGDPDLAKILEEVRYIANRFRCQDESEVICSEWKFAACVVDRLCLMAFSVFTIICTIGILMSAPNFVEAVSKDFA
Sequence of nAChRs comprised of α4 and β2 subunits (P09483 31-630): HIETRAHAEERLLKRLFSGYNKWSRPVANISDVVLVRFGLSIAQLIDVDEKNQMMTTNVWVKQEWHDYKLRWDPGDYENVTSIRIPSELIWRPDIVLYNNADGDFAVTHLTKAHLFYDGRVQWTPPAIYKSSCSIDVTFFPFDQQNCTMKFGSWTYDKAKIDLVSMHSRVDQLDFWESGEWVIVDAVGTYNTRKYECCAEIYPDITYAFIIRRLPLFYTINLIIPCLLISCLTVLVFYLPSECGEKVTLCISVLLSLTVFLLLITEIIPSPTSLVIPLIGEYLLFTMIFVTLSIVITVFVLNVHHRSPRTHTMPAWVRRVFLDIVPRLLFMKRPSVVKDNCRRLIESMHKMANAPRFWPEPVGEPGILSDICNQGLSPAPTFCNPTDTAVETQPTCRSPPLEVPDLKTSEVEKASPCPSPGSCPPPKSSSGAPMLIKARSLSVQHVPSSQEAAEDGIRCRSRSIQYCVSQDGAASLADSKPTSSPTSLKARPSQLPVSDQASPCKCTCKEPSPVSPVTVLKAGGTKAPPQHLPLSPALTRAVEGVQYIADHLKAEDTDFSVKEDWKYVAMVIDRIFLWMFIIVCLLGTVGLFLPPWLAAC
Sequence of nAChRs comprised of α4 and β2 subunits (P12390 25-500): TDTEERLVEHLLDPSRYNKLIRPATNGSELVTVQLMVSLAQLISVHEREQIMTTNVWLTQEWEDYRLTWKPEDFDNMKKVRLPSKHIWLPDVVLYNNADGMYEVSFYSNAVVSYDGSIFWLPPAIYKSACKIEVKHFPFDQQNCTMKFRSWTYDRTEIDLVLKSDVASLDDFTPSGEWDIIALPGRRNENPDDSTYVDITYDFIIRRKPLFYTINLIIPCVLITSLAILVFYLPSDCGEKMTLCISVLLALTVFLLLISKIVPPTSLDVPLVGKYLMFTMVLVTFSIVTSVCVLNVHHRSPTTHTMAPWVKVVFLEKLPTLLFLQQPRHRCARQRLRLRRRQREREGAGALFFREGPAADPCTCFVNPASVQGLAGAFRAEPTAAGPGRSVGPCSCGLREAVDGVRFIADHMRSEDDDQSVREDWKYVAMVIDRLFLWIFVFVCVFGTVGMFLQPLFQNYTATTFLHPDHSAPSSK
T1 sequence (P09483 31-630): as the sequence (P09483 31-630) above
T1 sequence (P12390 25-500): as the sequence (P12390 25-500) above

| SMILES | IC50 [1] [µM] | IC50 [2] [µM] | IC50 [3, 5] [µM] | melting point [°C] | IC50 ([1]; rat cerebral cortex homogenate, 1 nM 3H-cytisine, 90 min at 2° C., read-out: 3H-cytisine IC50) [µM] | IC50 ([2]; rat forebrain homogenate, 0.3 nM 3H-epibatidin, 60 min at room temperature, read-out: 3H-epibatidin IC50) [µM] | IC50 [3] [µM] | analgesic potency relative to morphine [4] [times] |
| --- | --- | --- | --- | --- | --- | --- | --- | --- |
| CCN1C2C=C(c3cccnc3)CC1CCC2.O=C(O)/C=C/C(=O)O (racemic) [Compound 6a, (±)-9-Ethyl-3-(3-pyridyl)-9-azabicyclo[3.3.1]non-2-ene Fumaric Acid Salt] | 1.8 | 1.7 | 5.8 | 193 to 195 | – | – | – | – |
| CN1C2C=C(c3cnc4ccccc4c3)CC1CCC2.O=C(O)/C=C/C(=O)O (racemic) [Compound 6b, (±)-3-(3-Quinolinyl)-9-methyl-9-azabicyclo[3.3.1]non-2-ene Fumaric Acid Salt] | – | – | – | 195 to 197 | 1 | 8.3 | 0.35 | – |
| CN1[C@@H]2CCC[C@H]1C[C@H](c1cccnc1)C2 [Compound 8a, Exo-9-Methyl-3-(3-pyridyl)-9-azabicyclo[3.3.1]nonane] | 0.018 | 0.11 | 1.4 | 69 to 70 | – | – | – | – |
| Clc1ccc(C2CC3CCC2N3)cn1 (stereo not shown) [Epibatidine] | – | – | – | – | – | – | – | ~500 |
